Source: US6995164B2, “Methods of treating tumors” (Rhode Island Hospital, priority 1999, dated 2006)
“Also recorded” adds a separate entry of the source.

Experiments:
[1] = system: panel of human and murine neoplastic cell lines; assay: Cell growth inhibition across the cell line panel; type: cell-based; details: 72 h, 3 d exposure; panel of human and murine tumor cell lines; read-out: IC50s, range over all cell lines evaluated
Procedure: Included in the tumor cell line panel were ovarian tumor cells (PA-1 and SKOV-3), colon tumor cells (HCT-8, HCT-15 and HT-29), lung tumor cells (H-157, A-549 and H-596), prostate tumor cells (DU-145), glioma cells (U-251), and melanoma (MNT-1). The murine melanoma B16F10 cell line was also tested. These cell lines readily available, e.g., from the American Type Culture Collection (ATCC). Cells were cultured in appropriate growth medium at 37° C. in a humidified incubator in an atmosphere of 5% CO2. Under these growth conditions, the doubling time of all cell lines was 20–28 h.
One ml of this cell suspension was added to each well of a 12 well cell culture plate that contained 3 ml of appropriate media plus serum. […] Control wells received 40 μl of 5% Kollidon 17PF alone. Seventy-two hours later, all cells were harvested by trypsinization and cell number determined electronically using a Coulter Model Z1 particle counter (Coulter Corp., Miami, Fla.) to assess cell growth inhibition. Each experiment was performed in duplicate and repeated a minimum of three times.
Cells were seeded at a density of 1–5×10^4 cells in each well of a 6 well tissue culture flask. […] After three days, cells were harvested by trypsinization and cell number determined electronically. Cell growth inhibition was determined by comparison to non-Taurolidine exposed control cultures. […]

NIH-3T3 [2] = assay: Cell cycle distribution and sub-G0/G1 DNA debris by flow cytometry (propidium iodide); type: cell-based, murine; details: 48 h exposure
Procedure: (§1) Three×10^5 cells were seeded in plastic tissue culture flasks. […] Control cultures received an appropriate volume of Kollidine-17P. […] The percentage of DNA debris in the sub-G0/G1 region was assessed using cytofluorometric techniques. Each bar represents the mean (±SE) of three determinations. **p≦0.01, ***p≦0.001, ****p≦0.0001
(§2) For flow cytometry studies, 1×10^6 PA-1, SKOV-3, or NIH-3T3 cells were incubated for 24 h in appropriate media containing serum. […] Control cultures for each cell line were incubated in media containing 40 μl of 5% Kollidon 17PF alone. Forty-eight hours later, all cells were harvested by trypsinization and prepared for cytofluorometric analysis by standard methods. For example, harvested cells were resuspended in ice cold phosphate-buffered saline at a final cell density of 2×10^6 cells/ml. The cells then were stained for 30 min at room temperature in the dark with a solution of 0.05 mg/ml propidium iodide, 0.6% Igepal, and 1% sodium citrate. Flow cytometry was performed by FACScan (Becton Dickinson, Plymouth, England) using the ModFit LT program (Becton Dickinson). […]
(§3) Three×10^5 cells were seeded in plastic tissue culture flasks. […] After an additional 48 h, cells were harvested, stained with propidium iodide, and cell cycle distribution assessed using cytofluorometric techniques. […]

PA-1 [3] = assay: as above; type: cell-based, human
Procedure: Three×10^5 cells were seeded in plastic tissue culture flasks. […] Control cultures received an appropriate volume of Kollidine-17P. […] The percentage of DNA debris in the sub-G0/G1 region was assessed using cytofluorometric techniques.
For flow cytometry studies, 1×10^6 PA-1, SKOV-3, or NIH-3T3 cells were incubated for 24 h in appropriate media containing serum. […] Control cultures for each cell line were incubated in media containing 40 μl of 5% Kollidon 17PF alone. Forty-eight hours later, all cells were harvested by trypsinization and prepared for cytofluorometric analysis by standard methods. For example, harvested cells were resuspended in ice cold phosphate-buffered saline at a final cell density of 2×10^6 cells/ml. The cells then were stained for 30 min at room temperature in the dark with a solution of 0.05 mg/ml propidium iodide, 0.6% Igepal, and 1% sodium citrate. Flow cytometry was performed by FACScan (Becton Dickinson, Plymouth, England) using the ModFit LT program (Becton Dickinson). Statistical analysis was performed with the Kruskal Wallis non-parametric ANOVA test followed by Dunn's multiple comparisons test using Instat.
as §3

SKOV-3 [4] = assay: as above; type: cell-based, human; details: 48 h exposure
Procedure: as §1, §2, §3

PA-1 [5] = assay: Western-blot analysis of PARP cleavage; type: cell-based, human; details: 24 h exposure to 50 or 100 μM
Procedure: (§4) Two×10^6 cells were seeded in 150 cm^2 tissue culture flasks. […] After an additional twenty-four hours, cells were harvested, cell number determined, and aliquots derived from equal cell numbers generated from each exposure condition. Total proteins from these whole cell lysates were separated by SDS-PAGE and transferred to nitrocellulose filters. Filters were then immunoblotted to detect intact PARP protein and cleavage fragments by using the clone C-2-10 mouse monoclonal anti-PARP antibody (Zymed Laboratories, San Francisco, Calif.). The resulting protein-antibody complexes were visualized by chemiluminescence techniques.
(§5) Western-blot analysis was used to assess of PARP cleavage. Two×10^6 cells were seeded into separate 75 cm^2 tissue culture flasks containing 20 ml of tissue culture media plus serum. […] Twenty-four hours after the addition of Taurolidine, cells were harvested, cell number determined, and aliquots containing an equal cell number were generated from each exposure condition. Total proteins from whole cell lysates generated from these aliquots were separated by SDS-PAGE and electrotransferred to nitrocellulose filters. Filters were then processed to detect intact PARP protein and cleavage fragments by using the clone C-2-10 mouse monoclonal anti-PARP antibody (Zymed Laboratories, San Francisco, Calif.). […]

SKOV-3 [6] = assay: Western-blot analysis of PARP cleavage; type: cell-based, human; details: 24 h exposure to 50 or 100 μM
Procedure: as §4, §5

NIH-3T3 [7] = assay: Western-blot analysis of PARP cleavage; type: cell-based, murine; details: 24 h exposure to 50 or 100 μM
Procedure: as §4, §5

[8] = Taurolidine-induced toxicity, 3 consecutive daily i.p. bolus injections; type: in vivo
Procedure: (§6) Studies to assess in vivo toxicity and therapeutic effectiveness were carried out in 6–12 week old female homozygous athymic (Hsd:athymic nude nu/nu) mice obtained from Harlan (Indianapolis, Ind.).
Control animals received 1 ml injections of 5% Kollidon 17PF alone. Animals were examined daily and body weight recorded twice weekly. A reduction in body weight of greater than 10% was considered significant. The maximally tolerated dose (MTD) was considered to be the dose which produced ˜10% mortality.
During the injection regimen, and daily thereafter for 30 d, mice were weighed and examined. Experiments were repeated a minimum of three times and mortality and weight loss data pooled.

[9] = system: SKOV-3 human ovarian tumor xenografts; assay: Therapeutic effectiveness against i.p. human ovarian tumor xenografts; type: in vivo, female nude mice
Description: Fourteen days following the final Taurolidine injection, mice in all groups were sacrificed and the peritoneal cavity examined for the presence of tumors. Each experimental was repeated three times and the pooled number of animals in each group ranged from 15–21.
Fourteen days following the final Taurolidine injection, mice in all groups were sacrificed, i.p. ovarian tumor xenografts removed and tumor weighed. Each experiment was repeated three times and the pooled number of animals in each group ranged from 15–21. Each bar represents the mean (±SE) tumor weight of 15–21 animals. ***p≦0.001, ****p≦0.0001.
as §6
To evaluate therapeutic effectiveness, mice received a single intraperitoneal injection of 5×10^6 SKOV-3 cells in a volume of 0.5 ml. Immediately thereafter, mice were randomly divided into treatment groups of 7 animals. […] Control animals received 1 ml injections of 5% Kollidon 17PF alone. Animals were examined daily and body weight recorded twice weekly. […] The mean tumor weight for each treatment group was calculated and statistical analysis of differences in the mean tumor weight between treatment groups employed the Student's t-test. p-values of ≦0.05 were considered significant.

[10] = system: HL-60 human promyelocytic cell line; assay: Apoptosis induction in non-adherent cancer cell model; type: cell-based
[11] = system: normal murine bone marrow cultures; assay: Cytotoxic and apoptotic activity in normal primary cells; type: cell-based
Description: This observation was confirmed using normal (non-tumor) primary cells derived from animals, which are known to be free of tumors.

glioblastoma multiforma = assay: Clinical use, intravenous infusion in advanced recurrent glioblastoma multiforma; type: in vivo, human; details: 20 g i.v. over 6 hours twice a week, at least one 5 week regimen
Procedure: Four patients, which were diagnosed with advanced recurrent glioblastoma multiforma, were treated with taurolidine. The prognosis for this group of patients was determined to be approximately 8 weeks of survival.

[12] = system: TNF; interleukins 1, 6, and 10; VEGF; TGF; assay: Angiogenesis factors in patients with metastatic colon cancer; type: in vivo, human; details: taurolidine-treated subjects compared to placebo
Procedure: Patients with metastatic colon cancer were treated with taurolidine and several factors controlling angiogenesis were measured.

[13] = system: human ovarian tumor cells; assay: Growth of established tumor cell colonies in vitro; type: cell-based; details: 24-hour exposure to 50 μM
Procedure: (§7) Parallel studies were carried out to assess whether disruption of cell adhesion played a role in the cytotoxic activity.

3T3 cells = assay: Cell cycle kinetics and DNA fragmentation after 24-hour exposure; type: cell-based
Description: (§8) This DNA fragmentation was not observed in normal 3T3 cells.

PA1 human ovarian cells = assay: as above; type: cell-based
Description: as §8

tumor cells = assay: Apoptosis of tumor cells in culture; type: cell-based
[14] = Clinical tolerability (i.p. lavage in recurrent ovarian tumors, systemic in glioblastoma); type: in vivo, human; details: i.p. lavage after surgery (ovarian) or systemic (glioblastoma)
Procedure: Taurolidine was administered by i.p. lavage immediately following surgery for removal of recurrent ovarian tumors. For patients with glioblastoma, Taurolidine was administered systemically.

[15] = system: aerobic and anaerobic bacterial strains; details: depending on the bacterial strain evaluated; cited from earlier work
[16] = system: MDR-transfected glioblastoma cells; assay: Cytotoxicity to drug resistant tumor cells
Description: Glioblastoma cells were transfected with a gene encoding multiple drug resistance (MDR).

human cancer cell lines = assay: In vitro cytotoxic activity survey of human cancer cell lines; type: cell-based
Procedure: as §7

O=S1(=O)CCN(CN2CCS(=O)(=O)NC2)CN1 [Taurolidine, Bis-(1,1-dioxoperhydro-1,2,4-thiadiazinyl-4)methane]
IC50 [1]: 9.6 to 34.2 µM
DNA debris in the sub-G0/G1 region (NIH-3T3 [2]): did not increase DNA debris in sub-G0/G1 region; also recorded: did not significantly affect the appearance of DNA debris
effect on cell cycle distribution (in words) (NIH-3T3 [2]): decreased the percentage of cells in G0/G1 and increased the percentage of cells in S in a concentration-dependent manner
effect on cell cycle distribution (in words) (PA-1 [3]; 48 h exposure to up to 100 μM): little effect on cell cycle distribution
DNA debris in the sub-G0/G1 region (PA-1 [3]; 48 h exposure, concentration-dependent): significantly increased DNA debris in the sub-G0/G1 region; also recorded: appearance of DNA debris in the sub-G0G1 region
effect on cell cycle distribution (in words) (SKOV-3 [4]): concentration-dependent decrease in the percentage of cells in G0/G1 but increased the percentage of cells in both the S-phase and G2/M
DNA debris in the sub-G0/G1 region (SKOV-3 [4]; concentration-dependent): significantly increased DNA debris in the sub-G0/G1 region; also recorded: appearance of DNA debris in the sub-G0G1 region
PARP cleavage (PA-1 [5]): induced PARP cleavage; also recorded: resulted in PARP cleavage
PARP cleavage (SKOV-3 [6]): induced PARP cleavage; also recorded: resulted in PARP cleavage
PARP cleavage (NIH-3T3 [7]): little evidence of this proteolytic event
PARP cleavage (NIH-3T3 [7]; listed as taurolidine): PARP cleavage was not evident
mortality (%) ([8]; 10 mg/mouse/inj i.p. on 3 consecutive days): 6%
mortality (%) ([8]; 20 mg/mouse/inj i.p. on 3 consecutive days): 13%
mortality (%) ([8]; 25 mg/mouse/inj i.p. on 3 consecutive days): 47%
mortality (%) ([8]; 30 mg/mouse/inj i.p. on 3 consecutive days): 100%
maximally tolerated dose (MTD) ([8]; mouse, in vivo, ip): 20 mg/mouse
tumor formation, ascites development and growth ([9]; 3 d 20 mg/mouse regimen initiated on the day of tumor cell injection): highly effective and inhibited tumor formation
tumor growth inhibition ([9]; single cycle initiated 5 d after tumor cell injection (established i.p. tumors)): capable of significantly inhibiting tumor growth
mean tumor size in treated mice versus controls ([9]; therapy delayed for up to 3 d after tumor cell injection): significantly smaller than in controls
exposure time that induces apoptosis ([10]; HL-60): ≤ 90 min
apoptosis pathway events ([10]; non-adherent cancer cell models): activation of caspases 3, 8 and 9
concentration required to inhibit cell proliferation [11]: concentrations in the mM range were required to inhibit cell proliferation
patients in whom the tumor mass decreased or stayed the same (glioblastoma multiforma): 3 out of the 4
factors controlling the growth of blood vessels (TNF; interleukins 1, 6, 10; VEGF; TGF) [12]: decreased
cytotoxic effect against the growth of established tumor cells [13]: significant cytotoxic effect
cell cycle kinetics (3T3 cells): significantly reduced the percentage of cells in both the S- and G2/M-phases
DNA fragmentation (3T3 cells; 50 μM, flow cytometry and agarose-gel electrophoresis): not observed; also recorded: not apparent
cell cycle kinetics (PA1 human ovarian cells; PA1): significantly reduced the percentage of cells in both the S- and G2/M-phases
DNA fragmentation (PA1 human ovarian cells; human ovarian tumor cells, 50 μM, flow cytometry and agarose-gel electrophoresis): induced a high degree of DNA fragmentation; also recorded: overt DNA fragmentation
incubation time after which apoptosis is induced (tumor cells): one
tolerability in patients [14]: well tolerated
minimum concentration required to inhibit bacterial cell growth (MIC) [15]: 10 to 1000 µg/mL
cytotoxicity ([16]; MDR-transfected glioblastoma cells, 50 μM): Significant cytotoxicity

COc1cccc2c1C(=O)c1c(O)c3c(c(O)c1C2=O)C[C@@](O)(C(=O)CO)C[C@@H]3O[C@H]1C[C@H](N)[C@H](O)[C@H](C)O1 [adriamycin]
resistance of transfected cells to standard chemotherapeutic agents ([16]; MDR-transfected versus untransfected glioblastoma cells): 100–1000 times

O=S1(=O)CCNCN1 [taurultam]
induction of apoptotic death (human cancer cell lines; cancer cells versus normal control cells): induced apoptotic death of cancer cells but not normal control cells
cytotoxic activity relative to taurolidine (human cancer cell lines; same human cancer cell lines as for taurolidine): approximately 75%
